Experimental data reported in publication PMC7176092, “Development of the first in vivo GPR17 ligand through an iterative drug discovery pipeline: A novel disease-modifying strategy for multiple sclerosis” (PLoS ONE, 2020).
Several values for one entry are separate records, joined by “and”; a condition that tells them apart may be missing. Identical values can stand only once. Like-named read-outs stand apart in the source and are kept apart here.

How the values were obtained:
human GPR17 = molecular target: T1, human GPR17 (Homo sapiens, UniProt Q13304); experiment: [35S]GTPγS binding assay; assay type: biochemical
T1 construct: HA; expressed in transfected cells
T1 sequence (Q13304 29-367): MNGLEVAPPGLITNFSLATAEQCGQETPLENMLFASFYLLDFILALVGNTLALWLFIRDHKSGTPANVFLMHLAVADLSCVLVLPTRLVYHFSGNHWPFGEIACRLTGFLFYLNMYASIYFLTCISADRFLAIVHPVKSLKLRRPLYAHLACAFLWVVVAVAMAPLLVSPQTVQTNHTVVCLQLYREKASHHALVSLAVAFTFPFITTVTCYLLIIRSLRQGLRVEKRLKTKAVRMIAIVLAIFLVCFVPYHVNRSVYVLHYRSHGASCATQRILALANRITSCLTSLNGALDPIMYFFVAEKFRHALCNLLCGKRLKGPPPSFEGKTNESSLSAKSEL
Protocol: [^35S]GTPγS binding assays were carried out as previously described. Briefly, control and astrocytoma 1321N1 cells stably transfected with human pcDNA3.1 (control cells) and human HA-tag GPR17 were homogenized in 5 mM Tris/HCl and 2 mM EDTA (pH 7.4) and centrifuged at 48,000g for 15 min at 4°C. The resulting pellets were washed in 50 mM Tris/HCl and 10 mM MgCl2 (pH 7.4). After protein dosage, aliquots of cell membranes were incubated with increasing concentrations of each investigated ligand (1 pM–10 μM) and GTPγS binding to activated G-proteins was quantified as previously described. Compounds were purchased from two external providers, i.e., Ambinter (Ambinter c/o Greenpharma, Orléans, France http://www.ambinter.com/) and Asinex (http://www.asinex.com/).
For analysis and graphic presentation of [^35S]GTPγS binding data, a nonlinear multipurpose curve fitting computer program (Graph-Pad Prism) was used. All data are presented as the mean ± SEM of three different experiments.
The selected 15 molecules were evaluated in our in-house [^35S]GTPγS functional assay in membranes from cells transfected with human GPR17. […] Moreover, this assay has been already successfully used in the past to measure the ability of both endogenous and novel synthetic compounds to activate GPR17 [25, 31]. All tested molecules were able to potently activate GPR17 with nanomolar/sub-nanomolar affinities. Concentration-response curves obtained for each selected compound are reported in S4 Fig.

[1] = In vivo mouse DMPK study, single 1 mg/kg subcutaneous dose
Protocol: In vivo DMPK studies were performed as an external service by Aptuit (Verona, Italy) according to standard procedures.
Two compounds were tested in a single dose pharmacokinetic (PK) study in mouse, in which a 1 mg/kg single dose solution (15% Ethanol, 85% PEG400) was administered by subcutaneous injection to naïve CD1 male mice from accredited supplier (n = 3), weighed prior to dosing. Blood samples were collected for 8 time-points (0.25, 0.50, 1, 2, 4, 6, 8, 24 hours).
Plasma samples were prepared and diluted according standard in-house procedures and stored at approximately -20°C, pending analysis. Briefly, blood samples were collected into tubes containing anticoagulant (K3EDTA), stored on ice and centrifuged to prepare plasma within 2 hours of collection. Plasma samples were diluted in Hepes Buffer and deproteinised using CH3CN containing rolipram as internal reference compound for positive ion mode, according standard procedure (20 ng/ml). After vortexing and centrifugation (3000 rpm per 10 min), sample supernatants were transferred in 96 well plate and diluted with water for analysis.
Blood concentrations of the tested compounds and their metabolites were detected through Liquid Chromatography-tandem Mass Spectrometry (QTRAP® 4000 LC-MS/MS System, Sciex). The results for each test compound in plasma were subjected to non-compartmental PK analysis using WinNonlin Phoenix v.6.3 for generation of appropriate PK parameters, reported along with graphical representation of the mean plasma concentration profiles over time.
At 24 hours, animals were sacrificed, and brains were collected and processed for measuring compound concentrations through mass spectrometry.

OPC-DRG co-cultures = experiment: In vitro myelination assay; assay type: cell-based, rat OPCs, mouse DRG; details: 10 nM; CTRL 100%; mean ± S.E.M.
Protocol: OPC-DRG co-cultures were prepared according to a previously described protocol.
DRG explants from E14.5 mice were directly put in culture after being plucked off from embryo spinal cords. Then, they were grown in Neurobasal medium (Life Technologies) in presence of 100 ng/ml nerve growth factor (NGF, Sigma-Aldrich), and in presence of 10 μM fluorodeoxyuridine (FUDR, Sigma-Aldrich) in order to remove all non-neuronal cells.
Purified primary rat OPCs were obtained from mixed glial cultures by orbital shaking for 3 hours. […]
At day 15, OPC/DRG co-cultures treated with either the selected compounds or the vehicle were fixed and treated with rat anti-MBP (Millipore), mouse anti-SMI 31 and mouse anti-SMI 32 (Cell Signaling), followed by the secondary goat anti-rat/-mouse antibody, conjugated to Alexa Fluor 555 or Alexa Fluor 488 (Life Technologies). The quantification of myelin segments was performed following a previously described protocol with ZEISS LSM Image Browser by acquiring 6 random fields of 4–5 coverslips for each experimental condition. […] The amount of myelin per axon (myelination index) was calculated as the ratio between the white pixels area and the green pixels area. […]

[2] = mouse, sc, plasma, 1 mg/kg s.c. single dose, CD1 male mice

SMILES: Cc1cccc(NC(=O)CN2C(=O)CC(c3ccccc3)=Nc3ccccc32)c1C [Compound 18]
- EC50 (human GPR17; membranes of 1321N1 cells transfected with human GPR17, mean ± SEM of 3 experiments): 1.68 ± 0.1 nM
- % Emax (ratio vs Emax of the standard) (human GPR17; standard LTC4 50 nM set to 100% (¶ compounds)): 104.6%
- Emax (% vs basal) (human GPR17; vs basal, mean ± SEM): 147.5 ± 5.8%
- Plasma concentration, individual mice ([1]; 0.50 h, 1 mg/kg s.c., 1 mg/kg): 0.0294 µg/mL and 0.023 µg/mL
- Plasma concentration, individual mice ([1]; 1.00 h, 1 mg/kg s.c., 1 mg/kg): 0.0255 µg/mL and 0.0308 µg/mL
- Plasma concentration, individual mice ([1]; 2.00 h, 1 mg/kg s.c., 1 mg/kg): 0.0062 µg/mL and 0.013 µg/mL and 0.0133 µg/mL
- Plasma concentration, individual mice ([1]; 4.00 h, 1 mg/kg s.c., 1 mg/kg): 0.0007 µg/mL and 0.0025 µg/mL and 0.0015 µg/mL
- concentration at 0.5 h ([1]; male, CD1, mouse, plasma, sc, 1 mg/kg, 0.50 h, 1 mg/kg s.c., n=3 mice, read-out: Plasma concentration, Mean): 0.0233 µg/mL
- concentration at 0.5 h ([1]; male, CD1, mouse, plasma, sc, 1 mg/kg, 0.50 h, 1 mg/kg s.c., read-out: Plasma concentration, individual mice): 0.0174 µg/mL
- concentration at 1 h ([1]; male, CD1, mouse, plasma, sc, 1 mg/kg, 1.00 h, 1 mg/kg s.c., n=3 mice, read-out: Plasma concentration, Mean): 0.0257 µg/mL
- concentration at 1 h ([1]; male, CD1, mouse, plasma, sc, 1 mg/kg, 1.00 h, 1 mg/kg s.c., read-out: Plasma concentration, individual mice): 0.0207 µg/mL
- concentration at 2 h ([1]; male, CD1, mouse, plasma, sc, 1 mg/kg, 2.00 h, 1 mg/kg s.c., n=3 mice): 0.0108 µg/mL
- concentration at 4 h ([1]; male, CD1, mouse, plasma, sc, 1 mg/kg, 4.00 h, 1 mg/kg s.c., read-out: Plasma concentration, Mean): 0.0016 µg/mL
- concentration at 6 h ([1]; male, CD1, mouse, plasma, sc, 1 mg/kg, 6.00 h, 1 mg/kg s.c., read-out: Plasma concentration, individual mice): 0.0008 µg/mL
- concentration at 4 h ([1]; male, CD1, mouse, plasma, sc, 1 mg/kg, plasma, 1 mg/kg s.c. single dose, CD1 male mice, read-out: Clast): 0.001 µg/mL
- AUC(0-t) [1, 2]: 0.0467 µg·h/mL
- Cmax [1, 2]: 0.0264 µg/mL
- Tmax [1, 2]: 60 min
- half-life [1, 2]: 45.5 min
- Metabolites found in vivo ([1]; plasma after s.c. administration in mice): 5
- Tlast ([1]; plasma, 1 mg/kg s.c. single dose, CD1 male mice): 4.00 h
- Myelination Index (OPC-DRG co-cultures): 144.7 ± 14.28%
